# According to patent US5143931A, “Leukotriene antagonists containing tetrazolyl groups” (SmithKline Beecham Corporation, priority 1990, dated 1992):
# Structures can show the parent of a compound that is named as a salt.
# Target: T1, leukotriene induced contraction of guinea pig tracheal tissues (Cavia porcellus, UniProt Q2NNR5)
# T1 sequence (Q2NNR5 1-340): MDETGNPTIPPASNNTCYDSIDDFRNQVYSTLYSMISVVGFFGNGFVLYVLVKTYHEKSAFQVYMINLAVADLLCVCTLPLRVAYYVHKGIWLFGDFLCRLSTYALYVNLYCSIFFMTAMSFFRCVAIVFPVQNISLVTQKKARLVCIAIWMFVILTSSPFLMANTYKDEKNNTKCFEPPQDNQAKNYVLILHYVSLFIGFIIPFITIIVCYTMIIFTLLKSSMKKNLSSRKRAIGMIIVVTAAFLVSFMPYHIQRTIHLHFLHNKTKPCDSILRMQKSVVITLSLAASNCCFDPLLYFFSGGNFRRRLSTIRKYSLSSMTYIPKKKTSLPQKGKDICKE
# Experiment: Inhibition of leukotriene (LTD4) induced contraction of guinea pig tracheal spiral strips in vitro
# Settings: LTD4 concentration-response curves on guinea pig tracheal strips, 30 minutes pretreatment with test compound; current average where tested more than once; read-out: In Vitro -Log K8 (converted)
row,Kd [nM],Structure (SMILES)
1,794,CCCCCCCCCCCCc1ccccc1C(Sc1nnnn1CC(=O)O)C(=O)O (stereo not drawn) [2(2-Dodecylphenyl)-2[(1-carboxymethyl-5-tetrazolyl)thio]acetic acid]
2,1580,"CCCCCCCCCCCCc1ccccc1C(Sc1nnnn1C)C(=O)O (stereo not drawn) [5-tetrazolyl, 0,1-CH3, C12 H25, CO2 H, 2-(2-Dodecylphenyl)-2[(1-methyl-5-tetrazolyl)thio]acetic acid]"
3,1000,O=C(O)CCCn1nnnc1SC(C(=O)O)c1ccccc1CCCCCCCCc1ccccc1 (stereo not drawn) [dipotassium salt hydrate]
